Results reported in patent US12655379B2, “Device for evaluation of chemical substance and method for evaluation of chemical substance” (SHINKO CHEMICAL CO., LTD., priority 2017, dated 2026).

Key:
[1] = system: Caco-2 cells; assay: Perfusion test of first pass effect, small intestine compartment (Caco-2 single layer film in insert); conditions: 240 μL of 62.5 μg/mL substrate solution in insert, HBSS perfusion, sampled every 30 minutes for 180 minutes, LC-MS-MS, FIG. 19
Protocol: (§1) In the present example, small intestine epithelial cells and liver cells were disseminated in separate compartments, and a first pass effect of a chemical substance was evaluated by using a device in which the respective compartments were connected via a flow path system. In the device described with reference to FIG. 1, Caco-2 cells were disseminated as model cells of the small intestine epithelial cells, and HepG2-CYP3A4 cells obtained by a genetic manipulation to excessively develop CYP3A4 in HepG2 cells were disseminated as model cells of the liver cells. Thus, the first pass effects (absorption and metabolism) of the chemical substance on two types of cells (the small intestine epithelial cells and the liver cells) were simultaneously evaluated.
(§2) • a) Caco-2 Cell • i) 0.4 mL of cell suspension was added to an inner side (an apical side) of a porous membrane filter at a density of 0.5 to 5×10^5 cells/cm^2 (e.g., 0.6×10^5 cells/cm^2). • ii) 0.8 mL of medium was added to an outer side (a basal side) of the porous membrane filter. • iii) The cells were cultured in a carbon dioxide gas incubator (5% of CO2 at 37° C. under humidification conditions) for about 3 weeks. An apical-side medium and a basal-side medium were appropriately changed.
(§3) Prior to use in a test, an electric resistance of a single layer film was measured by using an electric resistance measuring device.

[2] = system: HepG2-CYP3A4 cells; assay: Perfusion test of first pass effect, liver compartment (HepG2-CYP3A4 cells downstream of Caco-2 insert); conditions: 240 μL of 62.5 μg/mL substrate solution in insert, HBSS perfusion, sampled every 30 minutes for 180 minutes, LC-MS-MS, FIG. 20
Protocol: as §1, §2, §3

SMILES: Cc1ncc2n1-c1ccc(Cl)cc1C(c1ccccc1F)=NC2 [midazolam, Midazolam]
- permeation amount of midazolam permeated through the Caco-2 single layer film [1]: successive increase
- permeation amount of midazolam [2]: successive increase
